Measured values reported in ChEMBL document CHEMBL1139519, “Are L-adenosine and its derivatives substrates for S-adenosyl-L-homocysteine hydrolase?” (J Med Chem, 2005).
The source made the active and inactive calls. The rule behind the calls is not given here.

What was measured:
Adenosylhomocysteinase [1] = target: T1, Adenosylhomocysteinase (Homo sapiens, UniProt P23526)
Target sequence in this assay (P23526 2-432 limits assumed): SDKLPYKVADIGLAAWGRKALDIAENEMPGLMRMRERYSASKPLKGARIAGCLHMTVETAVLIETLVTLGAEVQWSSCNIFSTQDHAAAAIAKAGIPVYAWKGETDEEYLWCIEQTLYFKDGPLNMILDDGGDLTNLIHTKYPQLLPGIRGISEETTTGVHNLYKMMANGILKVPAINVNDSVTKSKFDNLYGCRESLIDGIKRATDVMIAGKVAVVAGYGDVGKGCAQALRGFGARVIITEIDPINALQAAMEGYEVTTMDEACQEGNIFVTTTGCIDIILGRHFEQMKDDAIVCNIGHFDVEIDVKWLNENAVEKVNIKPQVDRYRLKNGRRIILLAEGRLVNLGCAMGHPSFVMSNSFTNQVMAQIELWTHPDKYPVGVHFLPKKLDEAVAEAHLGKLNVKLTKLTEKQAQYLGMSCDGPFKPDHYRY
Description: Inactivation constant against recombinant human placental S-Adenosyl-L-homocysteine Hydrolase

Adenosylhomocysteinase [2] = target: T1, Adenosylhomocysteinase; test: Inhibitory potency against recombinant human placental S-Adenosyl-L-homocysteine Hydrolase
Target sequence in this assay (P23526 whole entry): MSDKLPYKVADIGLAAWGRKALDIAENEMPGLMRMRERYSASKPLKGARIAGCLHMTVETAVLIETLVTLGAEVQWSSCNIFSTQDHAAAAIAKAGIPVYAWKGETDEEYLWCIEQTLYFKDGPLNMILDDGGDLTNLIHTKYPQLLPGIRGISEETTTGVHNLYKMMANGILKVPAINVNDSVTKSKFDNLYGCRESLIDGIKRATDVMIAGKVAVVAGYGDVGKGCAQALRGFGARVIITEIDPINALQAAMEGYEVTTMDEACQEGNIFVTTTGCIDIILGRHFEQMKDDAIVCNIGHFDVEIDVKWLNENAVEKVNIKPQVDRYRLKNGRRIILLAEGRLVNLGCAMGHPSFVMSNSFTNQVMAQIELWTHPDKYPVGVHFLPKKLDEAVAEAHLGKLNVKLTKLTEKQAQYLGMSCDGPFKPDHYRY

Adenosylhomocysteinase [3] = target: T1, Adenosylhomocysteinase; remark: listed apart in the source
Target sequence in this assay (P23526 2-432 limits assumed): as the sequence (P23526 2-432 limits assumed) above
Description: Inhibitory potency against recombinant human placental S-Adenosyl-L-homocysteine Hydrolase at 200 uM

Row | Compound | Kinact (Adenosylhomocysteinase [1]) | Ki (Adenosylhomocysteinase [2]) | Inhibitory potency (Adenosylhomocysteinase [3])
1 | Nc1ncnc2c1ncn2[C@H]1OC(/C=N/O)C(O)[C@@H]1O (single isomer, unassigned) | 0.16 min⁻¹ | 670 nM | inactive
2 | Nc1ncnc2c1ncn2C1O[C@H](CO)[C@@H](O)[C@H]1O (single isomer, unassigned) |  |  | inactive
